# Measurements from PMC12593371, “Whole-Body Disposition and Metabolism of [^14C]-2,4,4′-Trichlorobiphenyl (PCB28) Following Lung Administration in Rats” (Environmental Science & Technology, 2025).
# What was measured:
# [1] = set-up: method as in our prior study (number not given); settings: acute inhalation exposure to a PCB mixture, estimated dose 40 μg/rat; ref our prior study (number not given); cited from earlier work
# [2] = Fractionation of parent PCB28 and metabolites in serum, liver, adipose and kidney (liquid scintillation counting); format: in vivo, Male Sprague–Dawley rats; settings: for peak concentration of parent compound in serum: 12 min
# Description: (§1) Animals in the HD group were intratracheally (i.t.) administered 42 μg of a one-time single dose of [^14C]-PCB28 in 200 μL of vehicle, while animals in the LD group received 4.2 μg of [^14C]-PCB28 in 100 μL of vehicle. The i.t. route for dosing was selected due to the limited availability and extraordinary cost of the radiolabeled PCB28, and to avoid ^14C contamination of the inhalation exposure apparatus. All i.t. instillation was performed under light anesthesia (4% isoflurane via a precision vaporizer Fortec, Cyprane, Keighley, UK). Rats recovered from the anesthesia within 2 min while held within a cylindrical glass chamber (2 L), equipped with drainage ports to facilitate urine collection and a metallic screen to segregate urine from feces (as illustrated in Figure S1). Air was drawn from the chamber at 6.0 L/min through a cartridge containing XAD-2 polymeric resin (Amberlite, Millipore Sigma, Burlington, MA) to capture any exhaled [^14C]-PCB28. For the longer time points (720 and 1440 min), individual rats were placed in metabolic cages following a similar protocol for excreta and exhaled breath collection. After exposure, the inner walls of the chamber were rinsed separately with water, acetone, and hexane (25 – 45 mL) and wiped to measure radioactivity. Rat fur was also wiped and analyzed for radioactivity. The rats exposed to the HD were euthanized using isoflurane and exsanguination via cardiac puncture at 12, 25, 50, 100, 200, 400, 720, and 1440 min postexposure (n = 1 per time point except n = 2 for 200 min). Animals exposed to the LD were similarly necropsied at time points of 2, 12, 50, 200, and 720 min postexposure (n = 2). Euthanasia was consistently performed during the light cycle, except in the case of the 720 min time point, wherein euthanasia occurred outside the light cycle.
# Extractions of parent PCB28 and its hydroxylated, methyl sulfone, and conjugated metabolites in serum, liver, adipose, and kidney samples were conducted using our previous protocol. Individual extractable metabolites were separated using a series of liquid–liquid extractions, employing a graded array of solvents with increasing polarity to facilitate the partitioning of the analytes according to their inherent lipophilic characteristics (Figure S2). Subsequently, individual fractions were classified into respective categories, including the native PCB moiety, hydroxylated PCB (OH-PCB), methyl sulfonyl-PCB (MeSO2-PCB), conjugated metabolites, and unextractable components. Analytical recoveries were quantified for each extraction and separation step. Tissue samples (200–400 mg wet weight) were prepared for analysis in a two-step homogenization process using 2 mL of hexane/acetone solvent (50:50, vol/vol). The resultant solution was centrifuged, and then the pellet underwent two successive extractions with 1.5 mL of dichloromethane (DCM), chloroform/methanol (50:50 vol/vol), methanol/water (50:50 vol/vol), and water, respectively. […] The residual hydrophobic phase was quantified as native PCB28. The quantification of unlabeled PCB28, OH-PCBs (as MeO-PCB derivatives), and MeSO2–PCBs in standards spiked samples was performed on a gas chromatograph (Agilent 6890N) equipped with a ^63Ni μ-ECD detector and SLB-5MS capillary column (60 m × 0.25 mm I.D., 0.25 μm film thickness; Supelco, St Louis, MO). […]
# [3] = set-up: method as in previously reported (number not given); settings: oral exposure to a PCB mixture; ref previously reported (number not given); cited from earlier work
# [4] = Toxicokinetic parameters by noncompartmental analysis after intratracheal administration of [14C]-PCB28; format: in vivo, Male Sprague–Dawley rats
# Description: (§2) Male Sprague–Dawley rats (8 weeks old) weighing 230–285 g (mean of 256 g) were used in this study (Envigo, Indianapolis, IN). Male rats were selected to maintain consistency with previous toxicokinetic investigations of lower-chlorinated PCBs, specifically the study on intratracheally instilled ^14C-labeled dichlorinated PCB11, which also utilized male rats. This approach facilitated direct comparison across studies and contributed to a more comprehensive toxicokinetic data set for LC-PCBs following inhalation exposure. A PCB toxicokinetic study being published separately investigated placental transfer and fetal uptake in pregnant females. All animals were handled in compliance with an approved Institutional Animal Care and Use Committee protocol (protocol#: 3091097 approved on 10/12/2023). Rats were pair-housed in a light and temperature-controlled environment with access to food and water ad libitum. After 1 week of acclimatization, rats were assigned to either a high-dose (HD) group (n = 9) or a low-dose (LD) group (n = 5) at random. Control rats (n = 3) were exposed to a single dose of unlabeled PCB28 (42 μg in 200 μL) and necropsied 50 min after exposure to establish background levels for radioactivity calculations in blank tissues. […] Therefore, animal numbers were customized between groups to most efficiently utilize the limited available ^14C-PCB28 stock in our lab.
# as §1, with “Rats recovered from the anesthesia within 2 min while held within a cylindrical glass chamber (2 L), equipped with drainage ports to facilitate urine collection and a metallic screen to segregate urine from feces (as illustrated in Figure S1).” left out, “Animals exposed to the LD were similarly necropsied at time points of 2, 12, 50, 200, and 720 min postexposure (n = 2).” left out
# (§3) Serum and blood cells were separated. Two to six technical replicates were collected from 36 tissue types and digestive matter (diluted in ultrapure water) from 5 different GI tract locations. Muscle and adipose tissue samples were obtained from various locations. The collected tissue samples were placed in scintillation vials containing 1 mL of solvable cocktail and kept at 37 °C overnight for complete solubilization. To enable subsequent analyses, the solubilized tissue samples underwent a 2-h heating phase at 50 °C. For the bone, feces, and digestive matter, 1 mL of isopropyl alcohol was added. For samples displaying darker coloration, a controlled volume of 30% hydrogen peroxide (100 to 300 μL) was slowly added in increments to remove potential interference.
# [5] = Mass balance and whole-body tissue distribution of radioactivity after intratracheal [14C]-PCB28; format: in vivo, Male Sprague–Dawley rats; settings: for contribution of adipose tissue to total radioactivity: 720 min; for share of the remaining radioactivity: 12 min
# Description: as §2, §1
# as §3, with “interference. […]” for “interference.”
smiles,measurement,setting,value
Clc1cccc(-c2cccc(Cl)c2)c1 [PCB11],serum elimination half-life,[1],11.5 h
"Clc1ccc(-c2ccc(Cl)cc2Cl)cc1 [PCB28, 2,4,4′-trichlorobiphenyl]",increase of parent PCB28 concentration over the entire study time course,"[2]; adipose tissue, high dose",9 fold
same,increase of parent PCB28 concentration between 200 and 720 min,"[2]; adipose tissue, low dose",3 fold
same,increase of parent PCB28 concentration over the entire study time course,"[2]; adipose tissue, low dose",36 fold
same,peak concentration of parent compound in serum,[2]; high dose,47 dpm/mg
same,peak concentration of parent compound in serum,[2]; low dose,7.6 dpm/mg
same,time of peak adipose concentration,[3],24 h
same,"AUC, high dose compared to low dose",[4]; adipose tissue,18.7 fold
same,C24,"[4]; adipose, high dose (42 μg i.t.)",385 dpm/mg
same,C24,"[4]; adipose, low dose (4.2 μg i.t.)",63.7 dpm/mg
same,C24,"[4]; bladder, high dose (42 μg i.t.)",8.0 dpm/mg
same,C24,"[4]; bladder, low dose (4.2 μg i.t.)",6.4 dpm/mg
same,C24,"[4]; brain, high dose (42 μg i.t.)",11.0 dpm/mg
same,C24,"[4]; brain, low dose (4.2 μg i.t.)",2.4 dpm/mg
same,C24,"[4]; bronchi, high dose (42 μg i.t.)",205 dpm/mg
same,C24,"[4]; bronchi, low dose (4.2 μg i.t.)",48.6 dpm/mg
same,C24,"[4]; esophagus, high dose (42 μg i.t.)",13.0 dpm/mg
same,C24,"[4]; esophagus, low dose (4.2 μg i.t.)",8.8 dpm/mg
same,C24,"[4]; heart, high dose (42 μg i.t.)",17.0 dpm/mg
same,C24,"[4]; heart, low dose (4.2 μg i.t.)",3.2 dpm/mg
same,blood/plasma ratio (blood-to-serum ratio),[4]; high dose (42 μg i.t.),0.89
same,C24,"[4]; kidney, high dose (42 μg i.t.)",23.0 dpm/mg
same,C24,"[4]; kidney, low dose (4.2 μg i.t.)",5.6 dpm/mg
same,C24,"[4]; liver, high dose (42 μg i.t.)",22.0 dpm/mg
same,C24,"[4]; liver, low dose (4.2 μg i.t.)",5.7 dpm/mg
same,blood/plasma ratio (blood-to-serum ratio),[4]; low dose (4.2 μg i.t.),0.89
same,C24,"[4]; lung, high dose (42 μg i.t.)",44.0 dpm/mg
same,C24,"[4]; lung, low dose (4.2 μg i.t.)",6.4 dpm/mg
same,"AUC, high dose compared to low dose",[4]; muscle,15.7 fold
same,C24,"[4]; muscle, high dose (42 μg i.t.)",10.0 dpm/mg
same,C24,"[4]; muscle, low dose (4.2 μg i.t.)",3.2 dpm/mg
same,C24,"[4]; pancreas, high dose (42 μg i.t.)",93.0 dpm/mg
same,C24,"[4]; pancreas, low dose (4.2 μg i.t.)",29.5 dpm/mg
same,"AUC, high dose compared to low dose",[4]; prostate,17.1 fold
same,C24,"[4]; prostate, high dose (42 μg i.t.)",89.0 dpm/mg
same,C24,"[4]; prostate, low dose (4.2 μg i.t.)",15.9 dpm/mg
same,"serum AUC0–24 h, high dose compared to low dose",[4]; serum,approximately 10 fold
same,T1/2,"[4]; serum, high dose (42 μg i.t.), Table 1 prints mean (C–V%) without naming the dose",12 h
same,C24,"[4]; serum, low dose (4.2 μg i.t.)",0.80 dpm/mg
same,"AUC, high dose compared to low dose",[4]; skin,15.1 fold
same,C24,"[4]; skin, high dose (42 μg i.t.)",155 dpm/mg
same,C24,"[4]; skin, low dose (4.2 μg i.t.)",34.2 dpm/mg
same,"AUC, high dose compared to low dose",[4]; spleen,16.4 fold
same,C24,"[4]; spleen, high dose (42 μg i.t.)",18.0 dpm/mg
same,C24,"[4]; spleen, low dose (4.2 μg i.t.)",3.2 dpm/mg
same,C24,"[4]; testis, high dose (42 μg i.t.)",6.0 dpm/mg
same,C24,"[4]; testis, low dose (4.2 μg i.t.)",1.6 dpm/mg
same,C24,"[4]; thymus, high dose (42 μg i.t.)",23.0 dpm/mg
same,C24,"[4]; thymus, low dose (4.2 μg i.t.)",4.8 dpm/mg
same,C24,"[4]; thyroid, high dose (42 μg i.t.)",72.0 dpm/mg
same,C24,"[4]; thyroid, low dose (4.2 μg i.t.)",9.6 dpm/mg
same,C24,"[4]; trachea, high dose (42 μg i.t.)",86.0 dpm/mg
same,C24,"[4]; trachea, low dose (4.2 μg i.t.)",21.5 dpm/mg
same,contribution of adipose tissue to total radioactivity,[5]; high dose,30%
same,contribution of adipose tissue to total radioactivity,[5]; low dose,28%
same,share of the retained radioactivity sequestered in skin and adipose tissue,[5]; 24 h,67–77%
same,total radioactivity remaining within the body,[5]; 24 h,88–92%
same,administered dose excreted via urine and feces,[5]; 24 h study,less than 4%
same,retention in the body or apparent bioavailability using fecal excretion,[5]; 24 h study,92%
same,increase of adipose [14C] concentration throughout the entire time course,[5]; high dose,6.5 fold
same,increase of adipose [14C] concentration throughout the entire time course,[5]; low dose,21 fold
same,reduction of quantified radioactivity between 12 and 50 min,[5]; blood,37–67%
same,total radioactivity excreted in the feces,[5]; by the end of the 24 h study period / at any time point,no more than 4%
same,time of peak concentration,"[5]; duodenum digestive matter, both doses",50 min
same,apparent bioavailability,"[5]; from fecal excretion, 24 h",up to 96%
same,nominal recovered radioactivity of the administered dose in the collected tissues,[5]; high dose (42 μg i.t.),83 ± 5%
same,"exhaled breath, share of the total recovered radioactivity",[5]; intratracheal dosing,0.07 ± 0.04%
same,pulmonary uptake,[5]; intratracheal lung dosing,99.9 ± 3.5%
same,reduction of quantified radioactivity between 12 and 50 min,[5]; kidney,36–69%
same,reduction of quantified radioactivity between 12 and 50 min,[5]; liver,41–58%
same,share of the remaining radioactivity,"[5]; liver, high dose",16.8%
same,share of the remaining radioactivity,"[5]; liver, low dose",20.6%
same,nominal recovered radioactivity of the administered dose in the collected tissues,[5]; low dose (4.2 μg i.t.),74 ± 13%
same,reduction of quantified radioactivity between 12 and 50 min,[5]; lung,56–73%
same,share of the remaining radioactivity,"[5]; muscle plus liver, high dose",~52.1%
same,share of the remaining radioactivity,"[5]; muscle, high dose",35.3%
same,share of the remaining radioactivity,"[5]; pulmonary regions, low dose",16.7%
same,more radioactivity retained in serum at the low dose than at the high dose,"[5]; serum, same time point",92%
same,time of peak radioactivity,[5]; stomach matter,50 min
